According to patent US20250145715A1, “B7-H3 TARGETING FUSION PROTEINS AND METHODS OF USE THEREOF” (GT Biopharma, Inc., priority 2021, published 2025):

How the values were obtained:
U266 cells = assay: IncuCyte Zoom NK cell killing of U266; type: cell-based, human; conditions: E:T 2:1 and 4:1
Text: (§1) FIGS. 7A-7B illustrate the ability of peripheral blood NK cells with or without B7-H3-TriKE to kill myeloma cells in live imaging IncuCyte Zoom assays. FIG. 7A is a graph showing the effects with effector:target (E:T) ratios of 2:1 and 4:1 on MM1S cells. FIG. 7B is a graph showing the effects with effector:target (E:T) ratios of 2:1 and 4:1 on U266 cells.
as §1, with “8A-8D” for “7A-7B”, “8A is a graph showing the effects with effector:target (E:T) ratios of 2:1 and 4:1 on H929 cells. FIG. 8B” for “7A”, “8C is a graph showing the effects with effector:target (E:T) ratios of 2:1 and 4:1 on RPMI-8226 cells. FIG. 8D” for “7B”
FIGS. 9A-9D illustrate the efficacy of B7-H3-TriKE with the proteasome inhibitor bortezomib (10 nM) and the immunomodulatory drug lenalidomide (5 μM). FIG. 9A is a graph showing the effect of the combination therapy on H929 cells after 48 hours. FIG. 9B is a graph showing the effect of the combination therapy on RPMI-8226 cells after 48 hours. FIG. 9C is a graph showing the effect of the combination therapy on MM1S cells after 48 hours. […]

[1] = tested on: NCI-H460 large cell lung cancer cells; assay: NK cell CD107a / IFNγ flow cytometry against NCI-H460; type: cell-based, human; conditions: normal donor and lung cancer patient samples, vs controls
Text: FIGS. 24A-24F illustrate that B7-H3 TriKE enhances NK cell function against lung tumor targets. FIG. 24A is a graph showing pooled analysis of proportion of NK cells from healthy donors expressing CD107a+ against A549(N=6) tumor targets. FIG. 24B is a graph showing pooled analysis of proportion of NK cells from healthy donors expressing IFNγ against A549(N=6) tumor targets. FIG. 24C is a graph showing pooled analysis of proportion of NK cells from healthy donors expressing CD107a+ against NCI-H322 (N=5) tumor targets. FIG. 24D is a graph showing pooled analysis of proportion of NK cells from healthy donors expressing IFNγ against NCI-H322 (N=5) tumor targets. FIG. 24E is a graph showing pooled proportion of NK cells from healthy donors (black bars) or lung cancer patients (white bars) expressing CD107a+ against NCI-H460 (N=7). FIG. 24F is a graph showing pooled proportion of NK cells from healthy donors (black bars) or lung cancer patients (white bars) expressing IFNγ against NCI-H460 (N=7). ** p<0.01, *** p<0.001, and **** p<0.0001.
ADCC was measured in a flow cytometry assay by evaluating degranulation via CD107a (lysosomal-associated membrane protein LAMP-1) and intracellular IFNγ production. […] Samples were washed and evaluated in an LSRII flow cytometer (BD Biosciences, San Jose, CA, USA). […]

| Substance | NK cell killing of U266 (U266 cells) | NK cell function against NCI-H460 [1] |
| --- | --- | --- |
| B7-H3 TriKE: camelid nanobodies targeting CD16 and B7-H3 joined by IL-15 and two linkers; sequence table equates the name with cam1615B7-H3 | significantly enhanced killing | – |
| cam1615B7-H3: second-generation TriKE: humanized camelid anti-CD16 VHH, human wild-type IL-15, anti-B7-H3 mAb 376.96 scFv; SEQ ID NO:1 | – | strongly increased NK cell function |
